Experiments:
[1] = Stability in rat plasma at 37° C.; format: in vitro ADME
Method: (§1) The stability of the acid labile, lipophilic molecular conjugates to hydrolysis in plasma was evaluated to determine their potential to release the active cancer chemotherapeutic agents into systemic circulation and thereby cause general off target toxicity (“side effects”). The conjugates were incubated with plasma of mouse, rat and human origin.
(§2) HPLC grade Methanol from Fisher (Fair lawn, NJ, USA). Part No: A452-4 (074833). HPLC grade Water from Fisher (Fair lawn, NJ, USA). Part No: W5-4 (073352). Drug-free mouse, rat and human plasmas were purchased from Innovative Research Inc. (Southfield, Mich., USA). LIPOSYN® I.V. (30% soybean oil and egg yolk phospholipids, Abbott Laboratories) Fat Emulsion from Hospira, Inc. (Lake Forest, Ill.).
(§3) Each drug (ART 198, ART 273, ART 488 and ART 489) was prepared in triplicate in mouse, rat and human plasma individually at […] concentration and vortexed for 1 minute and placed in a water bath at 37° C. at a shake rate of 75 per minute. Samples were drawn at time points of 0, 15, 30, 45, 60, 75, 90, 105, 120, 135, 150, 165, 180, 210, 240, 300, 360 and 480 minutes.
(§4) Chromatographic separation of the compounds was performed on a Waters Acquity UPLC™ using a BEH C18 column (1.7 μm, 2.1×50 mm). The mobile phase consisted of Methanol: 0.1% Formic acid (80:20). The flow rate was 0.3 ml/min; the sample injection volume was 5 μL, resulting in a 3 minute run time.
(§5) The MS instrumentation consisted of a Waters Micromass Quattro Micro™ triple-quadrupole system (Manchester, UK). The MS system was controlled by a 4.0 version of MassLynx software. Ionization was performed in the positive electrospray ionization mode. MS/MS conditions were the following: capillary voltage 3.02 kV; cone voltage 50 v; extractor voltage 5 v; and RF lens voltage 0.5 v. The source and desolvation temperatures were 100° C. and 400° C. respectively, and the desolvation and cone gas flow were 400 and 30 L/hr, respectively.
(§6) The selected mass-to-charge (m/z) ratio transitions of the ART 198 used in the selected ion monitoring (SIM) were: for ART 198, 617 (M+K)^+, for ART 273, 589 (M+K)^+, for ART 488, 913 (M+Na)^+, and for ART 489, 957 (M+Na)^+. The dwell time was set at 200 msec. MS conditions were optimized using direct infusion of standard solutions prepared in methanol and delivered by a syringe pump at a flow rate of 20 μL/min.
(§7) Samples of 100 μL were collected at time points of 0, 15, 30, 45, 60, 75, 90, 105, 120, 135, 150, 165, 180, 210, 240, 300, 360 and 480 minutes respectively and the reaction was terminated with methanol. In a separate set of experiments the acid labile, lipophilic molecular conjugates were dissolved in a small amount of ethanol and diluted into a lipid emulsion (Liposyn®) and added to mouse and human plasma before incubation and the hydrolysis of the conjugates was similarly measured. Collected plasma samples of 100 μL containing drug were placed in separate Eppendorf micro centrifuge tubes for processing. Methanol (200 μL) was added to extract the drug using the protein precipitation technique. The micro tubes were then vortex mixed for 10 minutes and centrifuged for 15 minutes at a speed of 10,000 rpm (Eppendorf 5415C centrifuge). The supernatant was collected and filtered using a 0.45 μm filter (Waters 13 mm GHP 0.45 μm) before analysis.
(§8) The weighted linear least-squares (1/x) regression was used as the mathematical model. The coefficient (r) for the compounds ranged from 0.9925 to 0.9999. The calibration range was selected according to the concentrations anticipated in the samples to be determined.
(§9) Samples were collected at various times and the percent remaining of the acid labile, lipophilic molecular conjugate of the cancer chemotherapeutic agent was determined along with the percent of the chemotherapeutic agent released from the hydrolysis of the conjugate.

[2] = Stability in human plasma at 37° C.; format: in vitro ADME
Method: as §1, §2, §3, §4, §5, §6, §7, §8, §9

Row | SMILES | percent remaining of initial drug ([1]; 480 min) [%] | percent remaining of initial drug ([2]; 0 min) [%] | percent remaining of initial drug ([2]; 15 min) [%] | percent remaining of initial drug ([2]; 30 min) [%] | percent remaining of initial drug ([2]; 45 min) [%] | percent remaining of initial drug ([2]; 60 min) [%] | percent remaining of initial drug ([2]; 75 min) [%] | percent remaining of initial drug ([2]; 90 min) [%] | percent remaining of initial drug ([2]; 105 min) [%] | percent remaining of initial drug ([2]; 120 min) [%] | percent remaining of initial drug ([2]; 135 min) [%] | percent remaining of initial drug ([2]; 150 min) [%] | percent remaining of initial drug ([2]; 165 min) [%] | percent remaining of initial drug ([2]; 180 min) [%] | percent remaining of initial drug ([2]; 210 min) [%] | percent remaining of initial drug ([2]; 240 min) [%] | percent remaining of initial drug ([2]; 300 min) [%] | percent remaining of initial drug ([2]; 360 min) [%] | percent remaining of initial drug ([2]; 480 min) [%] | percent remaining of initial drug ([1]; 0 min) [%] | also measured
1 | CCCCCCCCCCCCCCCC1OCC(COC(=O)O[C@@H]2C(=O)C=C(C)[C@@H]3C[C@H]4OC(=O)C(OC(=O)CC(O)(C(C)C)C(C)C)C5[C@@H](C)[C@@H](O)[C@@]6(O)OC[C@@]54C6[C@@]23C)O1 (stereo partly shown) [ART 488] | 33.3 | 100 | 90.8 | 89.1 | 87.8 | 87.9 | 87.9 | 87.1 | 86.2 | 85.3 | 84.0 | 82.7 | 81.1 | 78.6 | 78.1 | 76.5 | 59.3 | 59.8 | 43.6 |  | 
2 | COC(=O)[C@@]12OC[C@]34[C@H]([C@@H](O)[C@@H]1O)[C@@]1(C)CC(=O)C(O)=C(C)[C@@H]1C[C@H]3OC(=O)C(OC(=O)CC1(O)CCCCC1)[C@@H]24 (stereo partly shown) [ART 198] | 30.1 | 100 | 99.3 | 99.1 | 94.9 | 94.6 | 93.1 | 89.9 | 87.0 | 68.5 | 66.4 | 61.1 | 59.6 | 48.6 | 47.6 | 46.0 | 44.4 | 39.6 | 34.2 | 100 | percent remaining of initial drug ([1]; 15 min): 95.8%; percent remaining of initial drug ([1]; 30 min): 84.0%; percent remaining of initial drug ([1]; 45 min): 66.0%; percent remaining of initial drug ([1]; 60 min): 55.7%; percent remaining of initial drug ([1]; 75 min): 54.4%; percent remaining of initial drug ([1]; 90 min): 54.2%; percent remaining of initial drug ([1]; 105 min): 54.0%; percent remaining of initial drug ([1]; 120 min): 52.1%; percent remaining of initial drug ([1]; 135 min): 48.9%; percent remaining of initial drug ([1]; 150 min): 48.9%; percent remaining of initial drug ([1]; 165 min): 45.4%; percent remaining of initial drug ([1]; 180 min): 44.0%; percent remaining of initial drug ([1]; 210 min): 42.7%; percent remaining of initial drug ([1]; 240 min): 42.2%; percent remaining of initial drug ([1]; 300 min): 34.3%; percent remaining of initial drug ([1]; 360 min): 30.1%
3 | CCCCCCCCCCCCCCCC1OCC(COC(=O)OC2=C(C)[C@@H]3C[C@H]4OC(=O)C(OC(=O)CC5(O)CCCCC5)[C@H]5[C@]6(C(=O)OC)OC[C@]45[C@H]([C@@H](O)[C@@H]6O)[C@@]3(C)CC2=O)O1 (stereo partly shown) [ART 489] | 34.3 | 100 | 99.3 | 98.8 | 98.4 | 97.4 | 94.6 | 93.7 | 93.0 | 91.9 | 91.7 | 90.9 | 90.4 | 90.1 | 89.0 | 86.7 | 84.1 | 78.7 | 65.9 | 100 | percent remaining of initial drug ([1]; 15 min): 93.2%; percent remaining of initial drug ([1]; 30 min): 75.8%; percent remaining of initial drug ([1]; 45 min): 74.3%; percent remaining of initial drug ([1]; 60 min): 75.0%; percent remaining of initial drug ([1]; 75 min): 74.4%; percent remaining of initial drug ([1]; 90 min): 74.4%; percent remaining of initial drug ([1]; 105 min): 73.7%; percent remaining of initial drug ([1]; 120 min): 69.9%; percent remaining of initial drug ([1]; 135 min): 68.5%; percent remaining of initial drug ([1]; 150 min): 67.3%; percent remaining of initial drug ([1]; 165 min): 63.0%; percent remaining of initial drug ([1]; 180 min): 63.0%; percent remaining of initial drug ([1]; 210 min): 62.7%; percent remaining of initial drug ([1]; 240 min): 61.7%; percent remaining of initial drug ([1]; 300 min): 55.4%; percent remaining of initial drug ([1]; 360 min): 48.2%
